Where “and” joins values, the source holds several entries; their conditions need not be identical. Identical values can stand only once. One block for each compound: values may come before it.
Legend:
A549 = test: CCK-8 cell viability, single agent; format: cell-based, Human
Description: (§1) Cell metabolism/viability was assessed using a mitochondrial metabolism assay (CCK-8) kit (Cell Counting Kit-8, Cat: CK04, Dojindo Laboratories, Rockville, MD, USA) as previously described. Briefly, cells were seeded at a density of 3 × 10^3 cells per well in 96-well plates and allowed to adhere and stretch for 18–24 h prior to treatment. Cells were pre-treated with Ku-DBi for 24 h before bleomycin treatments. Subsequently, cells were incubated for an additional 48 h at 37 °C after which CCK-8 assay was performed. The absorbance of the formed formazan product in each well was measured at 450 nm and compared to vehicle-treated controls to determine percent cell viability. The results represent the average and SEM of triplicate determinations.

H1299 = test: CCK-8 cell viability, single agent; format: cell-based, Human
Description: as §1

H23 = test: CCK-8 cell viability, single agent; format: cell-based, Human
Description: as §1

H460 = test: CCK-8 cell viability, single agent; format: cell-based, Human
Description: as §1

MDA-436 = test: CCK-8 cell viability, single agent; format: cell-based, Human
Description: as §1

MDA-468 = test: CCK-8 cell viability, single agent; format: cell-based, Human
Description: as §1

MDA-MB-436 = test: Bleomycin-sensitization activity, CCK-8; format: cell-based, Human; details: BRCA1 mutant MDA-MB-436
Description: as §1

MDA-MB-468 = test: Bleomycin-sensitization activity, CCK-8; format: cell-based, Human; details: BRCA1 wild-type MDA-MB-468
Description: as §1

Ku 70/80 = target: T1, Ku 70/80 (Homo sapiens, UniProt P12956+P13010); test: EMSA Ku–DNA binding inhibition; details: 32P-labeled 30-bp duplex DNA, purified Ku 70/80, mean and SD of triplicate
T1 construct: made in house; host or cells: baculovirus-infected Sf9 cells
T1 sequence (P12956 whole entry): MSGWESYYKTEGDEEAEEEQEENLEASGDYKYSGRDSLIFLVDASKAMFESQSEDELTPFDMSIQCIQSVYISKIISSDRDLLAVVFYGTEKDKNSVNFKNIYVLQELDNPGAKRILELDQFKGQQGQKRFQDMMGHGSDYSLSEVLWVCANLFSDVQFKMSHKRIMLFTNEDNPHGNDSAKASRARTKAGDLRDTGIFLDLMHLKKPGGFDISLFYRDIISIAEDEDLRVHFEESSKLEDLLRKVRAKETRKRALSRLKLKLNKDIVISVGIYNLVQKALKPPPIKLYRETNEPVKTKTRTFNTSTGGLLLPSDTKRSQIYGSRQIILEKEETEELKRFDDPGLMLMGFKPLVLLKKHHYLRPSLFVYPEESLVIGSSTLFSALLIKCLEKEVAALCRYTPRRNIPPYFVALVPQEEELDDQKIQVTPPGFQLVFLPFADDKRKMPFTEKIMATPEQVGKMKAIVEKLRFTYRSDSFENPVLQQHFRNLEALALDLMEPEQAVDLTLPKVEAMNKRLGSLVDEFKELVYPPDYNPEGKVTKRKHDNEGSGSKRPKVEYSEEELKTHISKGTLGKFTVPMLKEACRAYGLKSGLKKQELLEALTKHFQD
T1 sequence (P13010 whole entry): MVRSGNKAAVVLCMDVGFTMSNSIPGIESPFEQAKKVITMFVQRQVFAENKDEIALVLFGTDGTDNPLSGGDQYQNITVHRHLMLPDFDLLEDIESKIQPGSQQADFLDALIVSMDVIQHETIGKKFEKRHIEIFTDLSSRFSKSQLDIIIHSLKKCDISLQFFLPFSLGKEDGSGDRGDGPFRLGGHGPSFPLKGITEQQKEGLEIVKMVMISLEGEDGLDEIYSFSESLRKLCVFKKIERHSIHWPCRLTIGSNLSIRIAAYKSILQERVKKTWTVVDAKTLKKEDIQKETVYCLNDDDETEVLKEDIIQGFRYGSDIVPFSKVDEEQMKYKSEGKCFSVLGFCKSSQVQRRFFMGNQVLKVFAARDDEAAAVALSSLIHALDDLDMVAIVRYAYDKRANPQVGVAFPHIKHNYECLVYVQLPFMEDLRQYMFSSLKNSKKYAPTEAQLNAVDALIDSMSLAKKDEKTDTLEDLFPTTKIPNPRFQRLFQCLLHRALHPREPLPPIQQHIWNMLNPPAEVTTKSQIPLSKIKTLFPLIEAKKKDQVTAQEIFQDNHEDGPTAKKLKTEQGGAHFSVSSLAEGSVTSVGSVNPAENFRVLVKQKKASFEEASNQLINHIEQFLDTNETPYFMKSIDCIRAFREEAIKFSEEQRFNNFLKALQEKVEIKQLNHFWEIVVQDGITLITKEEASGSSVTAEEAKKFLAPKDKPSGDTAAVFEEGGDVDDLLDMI
Description: (§2) The inhibitory activity of Ku-DBis on Ku-DNA binding was evaluated in vitro using Electrophoretic mobility shift assays (EMSA) with a [^32P]-labeled 30-bp duplex DNA and purified Ku 70/80. Kinase assays were performed to measure the DNA-dependent transfer of [^32P] from γ-[^32P] ATP to a synthetic p53-based peptide substrate, both as previously described. Both EMSA and DNA-PK inhibitor titration assays were performed in triplicate. Data were fit to standard binding curves using GraphPad Prism to determine IC50 values.

DNA-PK = target: T2, DNA-PK (Homo sapiens, UniProt P12956+P13010); test: DNA-PK kinase assay (phosphate transfer to p53 peptide); format: biochemical; details: for IC50: DNA-dependent phosphate transfer to synthetic p53 peptide, purified DNA-PK, mean and SD of triplicate
T2 construct: made in house; Ku 70/80 from baculovirus-infected Sf9 cells
T2 sequence (P12956 whole entry): as the sequence (P12956 whole entry) above
T2 sequence (P13010 whole entry): as the sequence (P13010 whole entry) above
Description: as §2

H460 NSCLC cells = test: Cellular uptake by HPLC; format: in vitro ADME, Human; details: H460, 10 µM, media with 10% FBS
Description: Cellular uptake was evaluated in two NSCLC cell lines, H460 and A549. Cells were seeded into 6-well plates at a density of 1 × 10^6 cells per well and cultured as monolayers at 37 °C and 5% CO2 for 18–24 h. Ku-DBis were added to the media at a concentration of 10 µM and incubation continued for the times indicated. Media were removed, cells were washed 3 times with PBS, 1 mL of methanol was added to each well, and cells were agitated overnight at 4 °C. The methanol was collected, and wells were washed with an additional 1 mL of methanol that was then pooled with the original. The methanol extracts were then dried under vacuum, resuspended in methanol, and analyzed by HPLC using a 250 × 4.6 and 5 μm C-18 reverse phase column with 1% TFA mobile phase in acetonitrile (ACN) gradient elution. Absorption was monitored at 425 nm, HPLC peaks were quantified using a standard curve, and picomoles of compound per million cells was calculated.

IC50 (A549; A549, CCK-8, 72 h, mean ± SD): ~4.5 µM | IC50 (H1299; H1299, CCK-8, 72 h, mean ± SD): 4 ± 0.9 µM | IC50 (H460; H460, CCK-8, 72 h, mean ± SD): 4.8 ± 1 µM
SMILES: O=c1cc(N2CCOCC2)oc2c(-c3cccc4c3sc3ccccc34)cccc12 [NU-7441, reference compound]
Cell Viability at 25 µM (A549; 25 µM): 13.6 ± 1.4 %ctrl | Cell Viability at 25 µM (H1299; 25 µM): 17.8 ± 5.4 %ctrl | Cell Viability at 25 µM (H23; 25 µM): 4.8 ± 0.5 %ctrl | Fold more sensitive than the other NSCLC lines (H23; ATM-null H23 cells): ~ 2 fold | IC50 (H23; H23, CCK-8, 72 h, mean ± SD): 2.2 ± 0.1 µM | Cell Viability at 25 µM (H460; 25 µM): 8.3 ± 0.1 %ctrl | Cell Viability at 25 µM (MDA-436; 25 µM): 17.8 ± 1.3 %ctrl | IC50 (MDA-436; MDA-436, CCK-8, 72 h, mean ± SD): 8.1 ± 0.9 µM | Cell Viability at 25 µM (MDA-468; 25 µM): 4.1 ± 0.9 %ctrl | IC50 (MDA-468; MDA-468, CCK-8, 72 h, mean ± SD): 5.2 ± 0.4 µM | Change in sensitivity to bleomycin (MDA-MB-436): decrease in sensitivity to bleomycin | Change in sensitivity to bleomycin (MDA-MB-468): increase in sensitivity

IC50 (Ku 70/80): 3.55 ± 0.4 µM | IC50 (DNA-PK): 1.74 ± 0.61 µM
SMILES: COc1cccc(NC(=O)c2cc(-c3ccc(/C=C4\C(=O)N(c5cccc(C(=O)O)c5)c5ccccc54)o3)ccc2F)c1 [GL-3649]

IC50 (Ku 70/80): 3.36 ± 0.89 µM | IC50 (DNA-PK): 1.72 ± 0.15 µM | Cellular uptake, fold more efficient than methoxy-derivatives 3395 and 3649 (H460 NSCLC cells): ~ 3 fold
SMILES: O=C(O)c1cccc(N2C(=O)/C(=C\c3ccc(-c4ccc(F)c(C(=O)Nc5cccc(OC(F)(F)F)c5)c4)o3)c3ccccc32)c1 [GL-3618]

IC50 (Ku 70/80): 2.4 µM and 2.41 µM | DNA-PK inhibitory activity, fold more active than fluoro-modified counterparts (3618 and 3649) (DNA-PK): ~ 2.5 fold | IC50 (DNA-PK): 0.77 ± 0.24 µM
SMILES: COc1cccc(NC(=O)c2cc(-c3ccc(/C=C4\C(=O)N(c5cccc(C(=O)O)c5)c5ccccc54)o3)ccc2OC)c1 [GL-3395]

From publication PMC11475570, “Impact of Optimized Ku–DNA Binding Inhibitors on the Cellular and In Vivo DNA Damage Response” (Cancers, 2024)
